Measurements taken from patent US20100022798A1, “Ibuprofen amine salts and synthesis thereof” (NATIONAL CENTRAL UNIVERSITY, priority 2008, published 2010).

Experiment: pH stability of the ibuprofen amine salt
Type: physicochemical
Details: pH range in which the salt is stable, after tested

stability: stable between pH 4 and 9
Compound: CC(C)Cc1ccc(C(C)C(=O)O)cc1.NC(CO)(CO)CO (stereo not shown) [ibuprofen amine salt]
